Measured values as given in PMC5556109, “A combinatorial approach for the discovery of cytochrome P450 2D6 inhibitors from nature” (Scientific Reports, 2017).
Read-outs that look alike come from different tables or passages of the source. One block for each molecule: values may come before it.

Legend:
CYP2D6 [1] = biological target: T1, CYP2D6 (Homo sapiens, UniProt P10635); experiment: P450-Glo CYP2D6 inhibition assay (bioluminescence-based; pre-screen at 100 µM and IC50 determination); conditions: for classification of CYP2D6 inhibition (actives / weak actives / inactives): ranked by IC50, inactives from pre-screen at 100 µM
T1 sequence (P10635 whole entry): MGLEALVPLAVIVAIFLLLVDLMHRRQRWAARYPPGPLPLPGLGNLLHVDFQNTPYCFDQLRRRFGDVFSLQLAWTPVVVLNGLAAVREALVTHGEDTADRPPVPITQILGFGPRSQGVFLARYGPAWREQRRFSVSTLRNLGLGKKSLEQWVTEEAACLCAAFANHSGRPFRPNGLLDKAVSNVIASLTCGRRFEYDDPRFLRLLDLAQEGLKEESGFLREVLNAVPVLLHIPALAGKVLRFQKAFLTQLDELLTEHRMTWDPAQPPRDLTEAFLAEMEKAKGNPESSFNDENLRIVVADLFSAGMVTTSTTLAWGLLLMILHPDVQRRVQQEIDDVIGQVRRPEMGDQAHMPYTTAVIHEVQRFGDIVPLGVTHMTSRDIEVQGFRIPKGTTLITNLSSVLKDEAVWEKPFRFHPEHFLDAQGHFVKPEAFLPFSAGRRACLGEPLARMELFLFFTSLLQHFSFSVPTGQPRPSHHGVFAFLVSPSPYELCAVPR
Description: (§1) Their CYP2D6 inhibitory potential was determined at a concentration of 100 µM in a final reaction volume of 50 µl. […] All compounds were dissolved in DMSO and the concentration thereof in the final reaction volume was 1%, according to the limitations indicated in the manufacturer’s protocol. […] To take into account the background luminescence, which may derive from a non-enzymatic conversion of ME-luciferin-EGE to luciferin, we included a ‘minus P450’ control that contained no CYP2D6 enzyme. In order to quantify CYP2D6 activity, we subtracted background values prior to calculating the percentage of total luminescence (% TL) obtained from the solvent control (set to 100%). Low % TL indicates low CYP2D6 activity.
(§2) In the three minus P450 control wells, 12.25 µl of the 4× reaction mixture was added. […] The plate was incubated for 10 minutes. The CYP2D6 enzyme reaction was initiated by the addition of 25 µl of 2× NADPH regeneration system (2.6 mM NADP^+, 6.6 mM glucose-6-phosphate, 6.6 mM MgCl2 and 0.8 U/ml glucose-6-phosphate dehydrogenase buffered in 0.1 mM sodium citrate at pH 5.5; Promega). After 45 minutes incubation, the enzyme reaction was stopped by the addition of 50 µl of the luciferin detection reagent, which contained also the esterase for the generation of the luminescence signal. The plate was incubated in the dark for 20 minutes in order to stabilize the signal measured by a Tecan infinite F200 PRO plate reader. […] The maximum allowed DMSO concentration in the final reaction mix was 1% according to the manufacturer’s protocol. The experiment was performed at room temperature and under prevention of excessive UV-light at minimum on two independent days (n = 2).
(§3) Concentration-dependent CYP2D6 inhibition assays were performed by preparing a 5-step dilution series of the 400 µM compound solutions. […] After this dilution step, 12.5 µl of each dilution was transferred to the assay plate. The assay was performed as described above. The DMSO concentration was kept constant for all concentrations with a maximum of 1%. The experiments were performed on three independent experimental days (n = 3).
(§4) Raw data obtained from Tecan infinite F200 PRO plate reader was processed by calculating total luminescence (% of untreated control) by applying the formula: raw data − (background luminescence) * 100/mean of negative control.

CYP2D6 [2] = biological target: T1, CYP2D6; conditions: recombinant enzyme
Description: as §1, §2, §3, §4

CYP2D6 [3] = biological target: T1, CYP2D6; experiment: in vitro; conditions: recombinant enzyme, pH 7.4
Description: as §1, §2, §3, §4

[4] = test system: P450-Glo detection reaction (unspecific esterase and modified firefly-luciferase)
Excerpt: (§5) This detection-reagent consists of i) a detergent that stops the CYP2D6 enzyme reaction, ii) an unspecific esterase that continuously releases luciferin and iii) a modified firefly-luciferase, thus a stable luminogenic signal is generated, which can be quantified by a luminometer (Fig. 1). The detection reaction is incorporated in the P450-Glo CYP2D6 inhibition assay. However, we implemented additional controls for unspecific interactions of the test compounds with the detection reaction. For this purpose, the previously established luminescence quenching control reaction reported by Modarai et al.[9] was adapted to our requirements with modifications for the use of larger sample volumes. In addition, Modarai et al. converted ME-luciferin-EGE to luciferin in the absence of a test compound and then evaluated the inhibition of the luciferase reaction.We conducted the control step by using pure luciferin-EGE, esterase, luciferase and a test compound in the absence of CYP2D6 (Supplementary Table S4).
(§6) The quantification of the P450-Glo detection reaction was performed by subtracting the background values prior to calculating the percentage of total luminescence (% TL) based on the total luminescence obtained from the solvent control (set to 100%).
(§7) We then added 12.5 µl 4× reaction mixture (5 µl 1.5 mM luciferin-EGE stock solution, 500 µl 1 M KPO4 buffer and 745 µl luciferase free water) to the wells. Finally, 25 µl of the 2× NADPH regeneration system was added. In order to initiate the detection reaction, 50 µl of the reconstituted luciferin detection reagent containing the esterase was added to the samples, positive and solvent control wells. This step was followed by 20 minutes incubation in the dark for signal stabilization. In the wells reserved for background luminescence, luciferase-free water was added. Measurements were performed on a Tecan infinite F200 PRO plate reader on two independent days (n = 2) at minimum.
as §4
(§8) A one-way ANOVA followed by Dunnett’s multiple comparisons test was performed. […] A p-value of < 0.05 was used to indicate significance.

CYP2D6 [5] = test system: CYP2D6; design: method as in earlier work; conditions: ME-luciferin-EGE as CYP2D6 substrate; cited from earlier work
firefly-luciferase = conditions: cited from earlier work
CYP2D6 [6] = conditions: Supplementary Table S2, supplementary reference list, cited from earlier work; for IC50: read-out: Inhibitory potency IC50
CYP2D6 [7] = experiment: CYP2D6 inhibition of virtual hits already reported in the literature; conditions: authors' classification of the literature value, Supplementary Table S2
Excerpt: the hits according to non-available CYP2D6 inhibition data, plant origin and availability. The

[8] = test system: P450-Glo detection reaction (unspecific esterase and modified firefly-luciferase); experiment: P450-Glo detection reaction control (luciferin-EGE, esterase, luciferase, test compound, no CYP2D6)
Excerpt: as §5, §6, §7, §4, §8

Structure (SMILES): CN1Cc2c(ccc3c2OCO3)[C@@H]2[C@H]1c1cc3c(cc1C[C@@H]2O)OCO3 [Compound 21, (+)-Chelidonine]
IC50 (CYP2D6 [1]): 0.0225 µM | classification of CYP2D6 inhibition (actives / weak actives / inactives) (CYP2D6 [2]): actives (key: actives: those compounds were classified as active, which exhibited CYP2D6 IC50 values up to 10 µM; inactives showed less than 50 % total luminescence at a concentration of 100 µM) | total luminescence in CYP2D6 inhibition pre-screen (CYP2D6 [2]; 100 µM): 0.45 % TL | inhibition at 100 µM (CYP2D6 [3]): 99.5% | P450-Glo Detection Reaction MEAN (total luminescence) [4]: 98.77 % TL

Structure (SMILES): COc1ccc2nc(C3=NC(C(=O)OCCO)CS3)sc2c1 (centres unmarked) [ME-luciferin-EGE, methoxy-luciferin-ethylene glycol ester]
turnover number (kcat) (CYP2D6 [5]): 0.118 s⁻¹

Structure (SMILES): COc1ccc(Cc2nccc3cc(OC)c(OC)cc23)cc1OC [Compound 6, Papaverine]
IC50 (CYP2D6 [1]): 7.02 µM | classification of CYP2D6 inhibition (actives / weak actives / inactives) (CYP2D6 [2]): actives (key: actives: those compounds were classified as active, which exhibited CYP2D6 IC50 values up to 10 µM; inactives showed less than 50 % total luminescence at a concentration of 100 µM) | P450-Glo Detection Reaction MEAN (total luminescence) [4]: 82.48 % TL

classification of CYP2D6 inhibition (actives / weak actives / inactives) (CYP2D6 [1]): weak actives
Structure (SMILES): Oc1ccc(/C=C/c2cc(O)cc(O)c2)cc1 [Compound 24, Resveratrol, reference compound]
inhibition of firefly-luciferase (firefly-luciferase): lower micromolar range

Structure (SMILES): COC(=O)C1=CO[C@@H](C)[C@H]2CN3CCc4c([nH]c5ccccc45)[C@@H]3C[C@H]12 [Ajmalicine]
IC50 (CYP2D6 [6]): 0.0023 µM | Classification of literature CYP2D6 inhibition (CYP2D6 [7]): active

Structure (SMILES): COc1cc2c(cc1O)CCN1Cc3c(ccc(OC)c3OC)C[C@H]21 [Corypalmine]
IC50 (CYP2D6 [6]): 1 to 10 µM | Classification of literature CYP2D6 inhibition (CYP2D6 [7]): active

Structure (SMILES): COc1ccc(CC2c3cc(OC)c(OC)cc3CCN2C)cc1OC (centres unmarked) [Laudanosine]
Inhibitory potency (CYP2D6 [6]): stated as inhibitor | Classification of literature CYP2D6 inhibition (CYP2D6 [7]): unclear

Classification of literature CYP2D6 inhibition (CYP2D6 [7]): inactive
Structure (SMILES): COc1ccc2c(c1OC)C(=O)O[C@@H]2[C@H]1c2c(cc3c(c2OC)OCO3)CCN1C [Noscapine]
Inhibitory potency (IC50/Ki not specified) (CYP2D6 [6]): > 100 µM

Structure (SMILES): COC(=O)C1=CO[C@@H](C)[C@@H]2CN3CC[C@@]4(C(=O)Nc5ccccc54)[C@@H]3C[C@H]12 [Compound 2, Isopteropodine]
IC50 (CYP2D6 [1]): 89.1 µM | total luminescence in CYP2D6 inhibition pre-screen (CYP2D6 [1]; 100 µM test compound, solvent control = 100%, low % TL = low CYP2D6 activity): 43.22 % TL | classification of CYP2D6 inhibition (actives / weak actives / inactives) (CYP2D6 [1]): weak actives | inhibition at 100 µM (CYP2D6 [3]): 56.8% | P450-Glo Detection Reaction MEAN Diff. (inhibition of the detection reaction) ([8]; 50 µM test compound, difference to DMSO 1% control): 7.57% | P450-Glo Detection Reaction MEAN (total luminescence) ([8]; 50 µM test compound, no CYP2D6, DMSO control = 100): 92.43 % TL | p < 0.05 (significant inhibition of the P450-Glo detection reaction) ([8]; 50 µM, one-way ANOVA, Dunnett's test vs DMSO control): Yes
